Target: T1, mitochondrial ATP synthase (Mus musculus, UniProt P56480+Q03265)
T1 construct: from tissue; host or cells: mouse heart, isolated mitochondria (fresh or frozen)
Experiment: ATP synthesis (oxygen consumption, Seahorse XF96) in fresh heart mitochondria
Format: biochemical
Description: To assess whether the fraction of synthetic and reverse hydrolytic activities of mitochondrial ATP synthase can be measured in the same preparation, a protocol was developed to monitor changes in oxygen consumption and proton release in response to changes in mitochondrial ATP synthase activity. The proton released and the concomitant changes in the pH can be monitored using the ECAR (extracellular acidification) channel in the Agilent Seahorse XF analyzer using isolated mitochondria, to ensure that the changes in pH cannot be attributed to glycolysis or other contributors to ECAR.
Mice were anesthetized with isoflurane followed by a cervical dislocation, and the heart was immediately removed and placed in ice cold relaxation buffer (5 mM sodium pyrophosphate, 100 mM KCl, 5 mM EGTA, 5 mM HEPES; pH 7.4). The heart was squeezed with tweezers to remove blood, minced with scissors, and then placed in a glass-glass Dounce homogenizer with 3 mL of HES homogenization buffer (250 mM sucrose, 5 mM HEPES, 1 mM EDTA; pH to 7.2, adjusted with KOH). The heart tissue was homogenized first with the loose pestle and followed by the tight pestle. The homogenized tissue was placed in a pre-chilled 15 ml conical tube and centrifuged at 900×g (4° C.) for 10 minutes (min). The supernatant was removed, placed in a new tube and centrifuged again at 900×g for 10 min. The supernatant was then transferred to 2 mL microcentrifuge tubes and centrifuged at 10,000×g (4° C.) for 10 min. The mitochondrial pellets were re-suspended in ice cold HES buffer and mitochondrial protein was measured with a BCA assay (Pierce). The concentrated mitochondrial pellet was stored on ice.
Heart mitochondria (0.75-1.5 μg) were loaded into a Seahorse XF96 microplate in 20 μL of MAS (70 mM Sucrose, 220 mM Mannitol, 5 mM KH2PO4, 5 mM MgCl2, 1 mM EGTA, 2 mM HEPES; pH 7.2) plus 1% free fatty acid BSA containing substrates. The loaded plate was centrifuged at 2,000×g for 5 min at 4° C. […]
Oxygen consumption was measured in isolated fresh intact mitochondria from mouse heart, as oxygen consumption is linked to maximal ATP synthesis and proton release when mitochondria are respiring either in the presence of substrates and ADP (ATP synthesizing mitochondria or state 3) or in the presence of substrates but not ADP (state 4). […]
OCR and ECAR were measured in a Seahorse XF96 analyzer under basal conditions as well as after injection of 2 μM oligomycin, two sequential additions of 1.5 μM FCCP, followed by 1 μM rotenone with 2 μM antimycin A. Respiratory parameters were calculated according to standard protocols, and all rates were corrected for non-mitochondrial respiration/background signal by subtracting the oxygen consumption rate insensitive to rotenone plus antimycin A.

change in ATP synthesis (Complex II substrates, fresh mitochondria): no change | change in ATP synthesis (fresh heart mitochondria (FIG. 1, FIG. 2)): no change
Structure (SMILES): Oc1ccc2c(c1)OC(c1ccc(O)c(C(F)(F)F)c1)C(O)C2 (single isomer, unassigned) [Compound 77b, 2-(4-hydroxy-3-(trifluoromethyl)phenyl)chromane-3,7-diol]
change in ATP synthesis (Complex I substrates, fresh mitochondria): no change

Reference: patent publication US20240254135A1, “POLYPHENOL COMPOUNDS” (Epirium Bio Inc., priority 2022, published 2024)
